In patent US12226409B2, “Treatment of hepatocellular carcinoma” (Eisai R&D Management Co., Ltd., priority 2017, dated 2025):

What was measured:
[1] = system: patients with unresectable HCC; conditions: human, in vivo
Description: (§3) Randomization was stratified according to region (Asia-Pacific or Western regions), macroscopic portal vein invasion and/or extrahepatic spread (yes or no), Eastern Cooperative Oncology Group performance status (0 or 1), and body weight (<60 kg or ≥60 kg).
(§4) Safety assessments included recording of vital signs, hematologic and biochemical laboratory testing, urinalysis, and electrocardiography.

[2] = system: unresectable HCC; assay: Open-label phase 3 noninferiority study, efficacy (tumor assessment by mRECIST); type: in vivo, human
Description: (§1) The primary endpoint was overall survival.
Patients who were eligible for enrollment had unresectable HCC with diagnosis confirmed histologically or cytologically or with diagnosis confirmed clinically in accordance with the American Association for the Study of Liver Diseases criteria. Included patients also had ≥1 measureable target lesion, based on modified Response Evaluation Criteria in Solid Tumors (Lencioni 2010); Barcelona Clinic Liver Cancer stage B or C categorization (Bruix Hepatology 2011); Child-Pugh class A; and Eastern Cooperative Oncology Group performance status ≤1. All eligible patients had controlled blood pressure (≤150/90 mm Hg), and adequate organ function. Patients with ≥50% liver occupation, clear bile duct invasion, or portal vein invasion at the main portal vein were excluded. Patients also were excluded if that had received prior systemic therapy for HCC.
(§2) Tumors were evaluated in accordance with mRECIST (Lencioni R., Semin Liver Dis., 30(1):52-60, 2010); RECIST 1.1 was applied for nonhepatic lesions (Eisenhauer, Eur J Cancer, 45(2):228-47, 2009). The liver was examined with computed tomography or magnetic resonance imaging was performed using a triphasic scanning technique. Assessments were performed every 8 weeks until disease progression. Quality of life questionnaires were administered at baseline, on day 1 of each subsequent treatment cycle, and at the off-treatment visit.
The primary endpoint of overall survival was first tested for noninferiority then for superiority. The required number of events for the primary analysis was 700 deaths, based on the fill analysis set. The HR and its 95% confidence interval (CI) were estimated from a Cox proportional hazard model with treatment group as a factor and with the analysis stratified according to the same factors applied for randomization.
A fixed-sequence procedure was followed to control the overall type I error rate of analyses for both the primary and secondary efficacy endpoints at α=0.05 (2-sided). After noninferiority was declared, secondary efficacy endpoints were tested. Differences in progression-free survival and time to progression were evaluated using a stratified log-rank test with randomization stratification factors, with the associated HR and its 95% CI. A difference in the objective response rate was evaluated using the Cochran-Mantel-Haenszel chi-square test with randomized stratification factors as strata, with associated odds ratio and its 95% CI. To assess futility, 2 interim analyses (at 30% and 70% of the target number of events) were performed using Bayesian predictive probability in a noninferiority design by the independent data monitoring committee.

[3] = system: patients with unresectable HCC; assay: Quality of life, EORTC QLQ-C30 and QLQ-HCC18 questionnaires; type: in vivo, human; conditions: role functioning, pain, diarrhea (QLQ-C30); nutrition, body image (QLQ-HCC18)
Procedure: as §1, §2

[4] = system: unresectable hepatocellular carcinoma (HCC); assay: REFLECT study, efficacy per independent review; type: in vivo, human
Procedure: The efficacy of LENVIMA was evaluated in a randomized, open-label, multicenter, international study (REFLECT; […]) conducted in patients with previously untreated unresectable hepatocellular carcinoma (HCC).

[5] = system: HCC; conditions: cited from earlier work
[6] = system: patients with unresectable HCC; assay: Open-label phase 3 study, safety and side-effect profile (CTCAE v4.0); conditions: 1 event per patient
Description: as §3, §4

CNC(=O)c1cc(Oc2ccc(NC(=O)Nc3ccc(Cl)c(C(F)(F)F)c3)cc2)ccn1 [Sorafenib]
AEs leading to dose reduction or interruption, subjects [1]: 55.6% | Dose modification: AST increased [1]: 3.8% | Dose modification: ascites [1]: 1.1% | Dose modification: hepatic encephalopathy [1]: 0.6% | Dose modification: neutrophil count decreased [1]: 1.1% | Dose modification: pyrexia [1]: 1.1% | Dose modification: vomiting [1]: 1.3% | Dose modification: weight decreased [1]: 0.8% | Dose reduction/interruption: Abdominal pain [1]: 8 (1.7) n (%) | Dose reduction/interruption: Abdominal pain upper [1]: 2 (0.4) n (%) | Dose reduction/interruption: Alanine aminotransferase increased [1]: 9 (1.9) n (%) | Dose reduction/interruption: Anemia [1]: 8 (1.7) n (%) | Dose reduction/interruption: Ascites [1]: 5 (1.1) n (%) | Dose reduction/interruption: Aspartate aminotransferase increased [1]: 18 (3.8) n (%) | Dose reduction/interruption: Asthenia [1]: 9 (1.9) n (%) | Dose reduction/interruption: Blood and lymphatic system disorders [1]: 13 (2.7) n (%) | Dose reduction/interruption: Blood bilirubin increased [1]: 14 (2.9) n (%) | Dose reduction/interruption: Decreased appetite [1]: 15 (3.2) n (%) | Dose reduction/interruption: Dehydration [1]: 0 (0.0) n (%) | Dose reduction/interruption: Diarrhea [1]: 35 (7.4) n (%) | Dose reduction/interruption: Dyspnea [1]: 4 (0.8) n (%) | Dose reduction/interruption: Edema peripheral [1]: 3 (0.6) n (%) | Dose reduction/interruption: Esophageal varices hemorrhage [1]: 1 (0.2) n (%) | Dose reduction/interruption: Fatigue [1]: 17 (3.6) n (%) | Dose reduction/interruption: Gamma-glutamyltransferase increased [1]: 4 (0.8) n (%) | Dose reduction/interruption: Gastrointestinal disorders [1]: 72 (15.2) n (%) | Dose reduction/interruption: General disorders and administration site conditions [1]: 35 (7.4) n (%) | Dose reduction/interruption: Hepatic encephalopathy [1]: 3 (0.6) n (%) | Dose reduction/interruption: Hepatic function abnormal [1]: 9 (1.9) n (%) | Dose reduction/interruption: Hepatobiliary disorders [1]: 19 (4.0) n (%) | Dose reduction/interruption: Hypertension [1]: 18 (3.8) n (%) | Dose reduction/interruption: Hyponatremia [1]: 0 (0.0) n (%) | Dose reduction/interruption: Investigations [1]: 52 (10.9) n (%) | Dose reduction/interruption: Malaise [1]: 0 (0.0) n (%) | Dose reduction/interruption: Metabolism and nutrition disorders [1]: 19 (4.0) n (%) | Dose reduction/interruption: Musculoskeletal and connective tissue disorders [1]: 9 (1.9) n (%) | Dose reduction/interruption: Myalgia [1]: 0 (0.0) n (%) | Dose reduction/interruption: Nausea [1]: 9 (1.9) n (%) | Dose reduction/interruption: Nervous system disorders [1]: 14 (2.9) n (%) | Dose reduction/interruption: Neutropenia [1]: 0 (0.0) n (%) | Dose reduction/interruption: Neutrophil count decreased [1]: 5 (1.1) n (%) | Dose reduction/interruption: PPE syndrome [1]: 18.5% | Dose reduction/interruption: Palmar-plantar erythrodysesthesia syndrome [1]: 88 (18.5) n (%) | Dose reduction/interruption: Platelet count decreased [1]: 12 (2.5) n (%) | Dose reduction/interruption: Proteinuria [1]: 7 (1.5) n (%) | Dose reduction/interruption: Pyrexia [1]: 5 (1.1) n (%) | Dose reduction/interruption: Rash [1]: 10 (2.1) n (%) | Dose reduction/interruption: Rash maculo-papular [1]: 5 (1.1) n (%) | Dose reduction/interruption: Renal and urinary disorders [1]: 9 (1.9) n (%) | Dose reduction/interruption: Respiratory, thoracic and mediastinal disorders [1]: 12 (2.5) n (%) | Dose reduction/interruption: Stomatitis [1]: 2 (0.4) n (%) | Dose reduction/interruption: Thrombocytopenia [1]: 4 (0.8) n (%) | Dose reduction/interruption: Vascular disorders [1]: 19 (4.0) n (%) | Dose reduction/interruption: Vomiting [1]: 6 (1.3) n (%) | Dose reduction/interruption: Weight decreased [1]: 4 (0.8) n (%) | Dose reduction/interruption: White blood cell count decreased [1]: 4 (0.8) n (%) | Dose reduction/interruption: decreased appetite [1]: 3.2% | Dose reduction/interruption: diarrhea [1]: 7.4% | Dose reduction/interruption: fatigue [1]: 3.6% | Dose reduction/interruption: hypertension [1]: 3.8% | Dose reduction/interruption: proteinuria [1]: 1.5% | Primary reason for discontinuation of treatment: Adverse event [1]: 43 (9.0) n (%) | Subjects with Any TEAEs [1]: 472 (99.4) n (%) | Subjects with any TEAEs leading to Dose Reduction or Interruption [1]: 264 (55.6) n (%) | TEAE: Abdominal pain [1]: 87 (18.3) n (%) | TEAE: Abdominal pain upper [1]: 40 (8.4) n (%) | TEAE: Alanine aminotransferase increased [1]: 52 (10.9) n (%) | TEAE: Alopecia [1]: 119 (25.1) n (%) | TEAE: Ascites [1]: 44 (9.3) n (%) | TEAE: Aspartate aminotransferase increased [1]: 80 (16.8) n (%) | TEAE: Asthenia [1]: 48 (10.1) n (%) | TEAE: Back pain [1]: 31 (6.5) n (%) | TEAE: Blood bilirubin increased [1]: 63 (13.3) n (%) | TEAE: Constipation [1]: 52 (10.9) n (%) | TEAE: Edema peripheral [1]: 33 (6.9) n (%) | TEAE: Fatigue [1]: 119 (25.1) n (%) | TEAE: Nausea [1]: 68 (14.3) n (%) | TEAE: Palmar-plantar erythrodysesthesia [1]: 52.4% | TEAE: Palmar-plantar erythrodysesthesia syndrome [1]: 249 (52.4) n (%) | TEAE: Platelet count decreased [1]: 58 (12.2) n (%) | TEAE: Pyrexia [1]: 63 (13.3) n (%) | TEAE: Rash [1]: 76 (16.0) n (%) | TEAE: Stomatitis [1]: 56 (11.8) n (%) | TEAE: Vomiting [1]: 36 (7.6) n (%) | TEAE: Weight decreased [1]: 106 (22.3) n (%) | Treatment-emergent adverse events of grade 3 or higher, patients [1]: 66.5% | Treatment-emergent adverse events, patients [1]: 99.4% | WBC count deceased, adjusted by treatment duration [1]: 0.15 episodes per SY | dysphonia, adjusted by treatment duration [1]: 0.28 episodes per SY | hepatic encephalopathy, adjusted by treatment duration [1]: 0.04 episodes per SY | hypothyroidism, adjusted by treatment duration [1]: 0.03 episodes per SY | neutrophil count decreased, adjusted by treatment duration [1]: 0.06 episodes per SY | proteinuria, adjusted by treatment duration [1]: 0.31 episodes per SY | subjects without a TEAE [1]: 3 subjects | Primary reason for discontinuation of treatment: Disease Progression ([2]; Full Analysis Set): 347 (72.9) n (%) | Median overall survival ([2]; in vivo): 12.3 mo | Median progression-free survival ([2]; mRECIST): 3.7 mo | Median time to progression ([2]; mRECIST): 3.7 mo | Objective response rate ([2]; mRECIST): 9.2% | time to clinically meaningful deterioration of quality of life [3]: deterioration was observed earlier | Median PFS ([4]; RECIST 1.1, independent review): 3.6 months | PFS Number of Events ([4]; RECIST 1.1, independent review): 320 | PFS Number of Events (%) ([4]; RECIST 1.1, independent review): (67) % | Median OS ([4]; in vivo): 12.3 months | Number of deaths ([4]; in vivo): 350 | Number of deaths (%) ([4]; in vivo): (74) % | Median PFS ([4]; mRECIST, independent review): 3.6 months | PFS Number of Events ([4]; mRECIST, independent review): 323 | PFS Number of Events (%) ([4]; mRECIST, independent review): (68) % | Median overall survival ([5]; first-line treatment for HCC): 10.7 months | median improvement in overall survival compared with placebo ([5]; in vivo): 2.8 months | response rate ([5]; in vivo): 2% | treatment-related fatal adverse events included [6]: tumor hemorrhage, ischemic stroke, respiratory failure, and sudden death
